Assay results published in patent US20100029609A1 (priority 2006, published 2010).

Each compound was assayed against T1, human S1P1 receptors (Homo sapiens, UniProt P21453) (assay: Human S1P Receptor Calcium FLIPR Antagonist Assay, HeLa Gα16 S1P1). Settings: HeLa-S1P1/Gα16 cells; antagonism of Ca2+ signal of probing agonist GNF-AC-1 at EC80.
T1 construct: expressed in transfected cells; host or cells: HeLa (human cervix carcinoma, ATCC CCL2), HeLa-S1P1/Gα16 cell clone 1
Assay type: cell-based
Text: Human S1P Receptor Calcium FLIPR Antagonist Assays
The assay measures intracellular changes of Ca^2+ mediated by the synthetic probing agonist 3-{[2-(2-Trifluoromethyl-biphenyl-4-yl)-benzo[b]thiophen-5-ylmethyl]-amino}-propionic acid (GNF-AC-1) in the HeLa-S1P1/Gα16 cell clone 1: HeLa (human cervix carcinoma, ATCC CCL2) cells stably expressing N-terminally myc-tagged human S1P1 receptors (GenBank™ accession No. NM_001400; UNIPROT P21453) and promiscuous Gα16 protein (GenBank™ accession number M63904, Swissprot P30679) are cultured at 37° C., 5% CO2, and 95% relative humidity. The cells are plated in 384 well black plates (10,000 cells per well). After 24 hours the cells are loaded with Fluo4-AM (1.6 μM in HBSS and 2.5 mM probenicid) for 1 hour at 37° C. After washing, the cells are transferred to the FLIPR. The test compounds are added at different concentrations (≦30 μM) in HBSS in the presence of 0.1% BSA and changes in fluorescence are recorded (indication of agonism). The probing agonist is added 15 minutes afterwards to the wells at a concentration giving 80% of the maximal activity (EC80). After each addition time points are collected as follows: 20 time points (2 seconds) before the addition of the agonist (Fmin) and 60 time points (1 or 2 seconds) after the addition of the probing agonist. This allows the determination of the maximal fluorescence (Fmax). The ratio (Fmax-Fmin)/Fmin is plotted against the log of the concentration of the test compounds and the IC50 (relative antagonism) is determined with the help of XLfit-4 software. […] A dose response curve of the probing agonist is determined on each plate in parallel. The compounds of the invention are typically active in this assay at a concentration ranging typically from <1 nM to 30 μM, usually from less than 1 nanomolar to 1 micromolar.

T1 sequence (P21453 whole entry): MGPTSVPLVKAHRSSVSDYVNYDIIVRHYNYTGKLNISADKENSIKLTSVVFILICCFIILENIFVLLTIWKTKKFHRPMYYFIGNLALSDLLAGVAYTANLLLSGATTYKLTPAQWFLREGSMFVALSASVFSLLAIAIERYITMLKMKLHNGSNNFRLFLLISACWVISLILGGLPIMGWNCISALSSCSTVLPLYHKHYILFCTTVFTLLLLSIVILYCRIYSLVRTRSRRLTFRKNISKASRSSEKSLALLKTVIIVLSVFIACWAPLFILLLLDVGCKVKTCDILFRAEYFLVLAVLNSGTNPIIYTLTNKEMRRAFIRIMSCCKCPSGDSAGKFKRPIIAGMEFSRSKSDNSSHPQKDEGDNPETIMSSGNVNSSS

| SMILES | IC50 [nM] |
| --- | --- |
| Cc1cc(S(=O)(=O)Nc2cccc(-c3cc(C)c(C(=O)N[C@@H](CO)C(N)=O)c(C)c3)c2)c(C)cc1Cl [Example 153, 3′-(4-Chloro-2,5-dimethyl-benzenesulfonylamino)-3,5-dimethyl-biphenyl-4-carboxylic acid ((S)-1-carbamoyl-2-hydroxy-ethyl)-amide] | 3 |
| Cc1cc(S(=O)(=O)Nc2cccc(-c3cc(C)c(C(=O)NC4(C(=O)O)CNC4)c(C)c3)c2)c(C)cc1Cl [Example 145, 3-{[3′-(4-Chloro-2,5-dimethyl-benzenesulfonylamino)-3,5-dimethyl-biphenyl-4-carbonyl]-amino}-azetidine-3-carboxylic acid] | 2 |
| Cc1cc(S(=O)(=O)Nc2cccc(-c3cc(C)c(C(=O)N[C@H](CN)C(=O)O)c(C)c3)c2)c(C)cc1Cl [Example 143, (R)-3-Amino-2-{[3′-(4-chloro-2,5-dimethyl-benzenesulfonylamino)-3,5-dimethyl-biphenyl-4-carbonyl]-amino}-propionic acid] | 5 |
| Cc1cc(S(=O)(=O)Nc2cccc(-c3ccc(C(=O)NCC(=O)O)cc3)c2)c(C)cc1Cl [Example 23, {[3′-(4-Chloro-2,5-dimethyl-benzenesulfonylamino)-biphenyl-4-carbonyl]-amino}-acetic acid] | 3.2 |
| CC(=O)N1CC(NC(=O)c2ccc(-c3cccc(NS(=O)(=O)c4cc(C)c(Cl)cc4C)c3)cc2C)(C(=O)O)C1 [Example 56, 1-Acetyl-3-{[3′-(4-chloro-2,5-dimethyl-benzenesulfonylamino)-3-methyl-biphenyl-4-carbonyl]-amino}-azetidine-3-carboxylic acid] | 5 |
| COc1cc(-c2cccc(NS(=O)(=O)c3cc(C)c(Cl)cc3C)c2)ccc1C(=O)NCC(=O)O [Example 70, {[3′-(4-Chloro-2,5-dimethyl-benzenesulfonylamino)-3-methoxy-biphenyl-4-carbonyl]-amino}-acetic acid] | 1 |
| Cc1cc(S(=O)(=O)Nc2cccc(-c3ccc(C(=O)N[C@@H](CO)C(=O)O)c(C)c3)c2)c(C)cc1Cl [Example 45, (S)-2-{[3′-(4-Chloro-2,5-dimethyl-benzenesulfonylamino)-3-methyl-biphenyl-4-carbonyl]-amino}-3-hydroxy-propionic acid] | 1.1 |
| Cc1cc(S(=O)(=O)Nc2cccc(-c3cc(C)c(C(=O)N[C@@H](C)C(=O)O)c(C)c3)c2)c(C)cc1Cl [Example 132, (S)-2-{[3′-(4-Chloro-2,5-dimethyl-benzenesulfonylamino)-3,5-dimethyl-biphenyl-4-carbonyl]-amino}-propionic acid] | 1.1 |
| Cc1cc(S(=O)(=O)Nc2cccc(-c3cc(C)c(C(=O)NC4(C(=O)O)CN(C)C4)c(C)c3)c2)c(C)cc1Cl [Example 150, 3-{[3′-(4-Chloro-2,5-dimethyl-benzenesulfonylamino)-3,5-dimethyl-biphenyl-4-carbonyl]-amino}-1-methyl-azetidine-3-carboxylic acid] | 1.6 |
| Cc1cc(S(=O)(=O)Nc2cccc(-c3ccc(C(=O)N[C@H](CO)C(=O)O)cc3)c2)c(C)cc1Cl [Example 86] | 1.5 |
| CC[C@H](NC(=O)c1c(C)cc(-c2cccc(NS(=O)(=O)c3cc(C)c(Cl)cc3C)c2)cc1C)C(=O)O [Example 135, (S)-2-{[3′-(4-Chloro-2,5-dimethyl-benzenesulfonylamino)-3,5-dimethyl-biphenyl-4-carbonyl]-amino}-butyric acid] | 1.7 |
| CCc1cc(-c2cccc(NS(=O)(=O)c3cc(C)c(Cl)cc3C)c2)ccc1C(=O)N[C@@H](C)C(=O)O [Example 154, (S)-2-{[3′-(4-Chloro-2,5-dimethyl-benzenesulfonylamino)-3-ethyl-biphenyl-4-carbonyl]-amino}-propionic acid] | 1.7 |
| Cc1cc(S(=O)(=O)Nc2cccc(-c3cc(C)c(C(=O)N[C@@H](C)C(N)=O)c(C)c3)c2)c(C)cc1Cl [Example 151, 3′-(4-Chloro-2,5-dimethyl-benzenesulfonylamino)-3,5-dimethyl-biphenyl-4-carboxylic acid ((S)-1-carbamoyl-ethyl)-amide] | 8 |

Other lines, results leading:

| IC50 [nM] | SMILES |
| --- | --- |
| 5.5 | Cc1cc(S(=O)(=O)Nc2cccc(-c3cc(C)c(C(=O)N[C@@H](CN)C(=O)O)c(C)c3)c2)c(C)cc1Cl [Example 142, (S)-3-Amino-2-{[3′-(4-chloro-2,5-dimethyl-benzenesulfonylamino)-3,5-dimethyl-biphenyl-4-carbonyl]-amino}-propionic acid] |
| 0.8 | Cc1cc(S(=O)(=O)Nc2cccc(-c3ccc(C(=O)NC4(C(=O)O)CC4)c(C)c3)c2)c(C)cc1Cl [Example 57, 1-{[3′-(4-Chloro-2,5-dimethyl-benzenesulfonylamino)-3-methyl-biphenyl-4-carbonyl]-amino}-cyclopropanecarboxylic acid] |
| 2 | Cc1cc(S(=O)(=O)Nc2cccc(-c3cc(C)c(C(=O)NC4(C(=O)O)CCN(C)CC4)c(C)c3)c2)c(C)cc1Cl [Example 155, 4-{[3′-(4-Chloro-2,5-dimethyl-benzenesulfonylamino)-3,5-dimethyl-biphenyl-4-carbonyl]-amino}-1-methyl-piperidine-4-carboxylic acid] |
| 7 | Cc1cc(S(=O)(=O)Nc2cccc(-c3cc(C)c(C(=O)N[C@H](C)C(=O)O)c(C)c3)c2)c(C)cc1Cl [Example 134, (R)-2-{[3′-(4-Chloro-2,5-dimethyl-benzenesulfonylamino)-3,5-dimethyl-biphenyl-4-carbonyl]-amino}-propionic acid] |
| 1.3 | Cc1cc(S(=O)(=O)Nc2cccc(-c3ccc(C(=O)N[C@@H](C)C(=O)O)c(C)c3)c2)c(C)cc1Cl [Example 63, (S)-2-{[3′-(4-Chloro-2,5-dimethyl-benzenesulfonylamino)-3-methyl-biphenyl-4-carbonyl]-amino}-propionic acid] |
| 0.5 | CC[C@H](NC(=O)c1ccc(-c2cccc(NS(=O)(=O)c3cc(C)c(Cl)cc3C)c2)cc1C)C(=O)O [Example 62, (S)-2-{[3′-(4-Chloro-2,5-dimethyl-benzenesulfonylamino)-3-methyl-biphenyl-4-carbonyl]-amino}-butyric acid] |
| 0.4 | Cc1cc(S(=O)(=O)Nc2cccc(-c3ccc(C(=O)N[C@H](C(=O)O)C(C)(C)O)c(C)c3)c2)c(C)cc1Cl [Example 61, (S)-2-{[3′-(4-Chloro-2,5-dimethyl-benzenesulfonylamino)-3-methyl-biphenyl-4-carbonyl]-amino}-3-hydroxy-3-methyl-butyric acid] |
